Assay [1] can be described thus: Inhibition of Wistar rat lens ALR2 assessed as reduction in NADPH oxidation using D,L-glyceraldehyde as substrate by UV-visible spectrophotometric method.
Assay [2] is filed under the species Rattus norvegicus. In words: Selectivity index, ratio of IC50 for Wistar rat kidney ALR1 to IC50 for Wistar rat lens ALR2.
Assay [3] deals with Aldo-keto reductase family 1 member A1 (Rattus norvegicus, UniProt P51635). As to the kind of experiment: Inhibition of Wistar rat kidney ALR1 assessed as reduction in NADPH oxidation using D-glycuronate as substrate by UV-visible spectrophotometric method.
Aldo-keto reductase family 1 member A1, sequence (P51635 whole entry, looked up): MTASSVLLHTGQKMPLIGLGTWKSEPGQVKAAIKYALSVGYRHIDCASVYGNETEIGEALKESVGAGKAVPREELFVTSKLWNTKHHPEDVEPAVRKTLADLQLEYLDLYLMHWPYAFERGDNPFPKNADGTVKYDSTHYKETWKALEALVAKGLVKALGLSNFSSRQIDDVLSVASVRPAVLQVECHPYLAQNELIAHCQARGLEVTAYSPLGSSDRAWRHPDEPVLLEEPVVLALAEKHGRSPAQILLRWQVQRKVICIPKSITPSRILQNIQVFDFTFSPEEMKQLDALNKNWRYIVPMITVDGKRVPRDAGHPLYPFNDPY
Assay [4] is described as follows: Inhibition of Fischer-344 rat lens ALR2.
Assay [5] in a line: Mixed-type inhibition of recombinant human ALR2 expressed in Escherichia coli BL21 (DE3) assessed as enzyme-substrate-inhibitor complex using varying levels of glutathionyl-4-hydroxytrans-2-nonenal substrate by Hanes-Woolf plot analysis.
The species entered for assay [6] is Rattus norvegicus. In words: Inhibition of ALR2 in Wistar rat lens assessed as reduction in glucose induced-sorbitol accumulation by measuring sorbitol level at 2 uM pretreated for 30 mins followed by glucose challenge measured after 3 hrs by resazurin dye based fluorescence assay (reference value: 1026.51 +/- 157.33).
Assay [7] is described as follows: Mixed-type inhibition of recombinant human ALR2 expressed in Escherichia coli BL21 (DE3) assessed as enzyme-inhibitor complex using varying levels of 4-hydroxy-trans-2-nonenal substrate by Hanes-Woolf plot analysis.
The species entered for the next assay is Homo sapiens. In words: Ratio of Ki for recombinant human ALR2 expressed in Escherichia coli BL21 (DE3) assessed as enzyme-substrate-inhibitor complex using varying levels of glutathionyl-4-hydroxytrans-2-nonenal substrate to Ki for human ALR2 expressed in Escherichia coli BL21 (DE3) assessed as enzyme-inhibitor complex using varying levels of glutathionyl-4-hydroxytrans-2-nonenal substrate.

A short description of assay [8]: Mixed-type inhibition of recombinant human ALR2 expressed in Escherichia coli BL21 (DE3) assessed as enzyme-substrate-inhibitor complex using varying levels of L-idose substrate by Hanes-Woolf plot analysis.
Assay [9] is described as follows: Mixed-type inhibition of recombinant human ALR2 expressed in Escherichia coli BL21 (DE3) assessed as enzyme-substrate-inhibitor complex using varying levels of D,L-glyceraldehyde substrate by Hanes-Woolf plot analysis.
Assay [10] in a line: Mixed-type inhibition of recombinant human ALR2 expressed in Escherichia coli BL21 (DE3) assessed as enzyme-inhibitor complex using varying levels of L-idose substrate by Hanes-Woolf plot analysis.
The nature of assay [11]: Mixed-type inhibition of recombinant human ALR2 expressed in Escherichia coli BL21 (DE3) assessed as enzyme-substrate-inhibitor complex using varying levels of 4-hydroxy-trans-2-nonenal substrate by Hanes-Woolf plot analysis.
Assay [12] is filed under the species Rattus norvegicus. As to the kind of experiment: Inhibition of ALR2 in Wistar rat lens assessed as reduction in glucose induced-sorbitol accumulation by measuring sorbitol level at 10 uM pretreated for 30 mins followed by glucose challenge measured after 3 hrs by resazurin dye based fluorescence assay (reference value: 1026.51 +/- 157.33).
Assay [13] is filed under the species Rattus norvegicus. As to the kind of experiment: Inhibition of ALR2 in Wistar rat lens assessed as reduction in glucose induced-sorbitol accumulation by measuring sorbitol level at 50 uM pretreated for 30 mins followed by glucose challenge measured after 3 hrs by resazurin dye based fluorescence assay relative to control. Details: scale not given: the % may be the effect or the level left.

A short description of assay [14]: Mixed-type inhibition of recombinant human ALR2 expressed in Escherichia coli BL21 (DE3) assessed as enzyme-inhibitor complex using varying levels of D,L-glyceraldehyde substrate by Hanes-Woolf plot analysis.
Assay [15] is described as follows: Mixed-type inhibition of recombinant human ALR2 expressed in Escherichia coli BL21 (DE3) assessed as enzyme-inhibitor complex using varying levels of glutathionyl-4-hydroxytrans-2-nonenal substrate by Hanes-Woolf plot analysis.

For the compound `O=C(c1ccc(-c2ccccc2)cc1)c1cc(C(=O)C(F)(F)F)n(-c2cnn(O)c2)c1`, the results for the IC50 in assay [1] and in assay [3] were 74 nM and 14100 nM, respectively. In addition, the negative logarithm of the IC50 (pIC50) in assay [1] is on record as 7.19. Moreover, the Ratio IC50 in the assay listed under Rattus norvegicus [2] came to 190.
Turning to `O=C(c1ccccc1)c1cc(C(=O)C(F)(F)F)n(-c2cnn(O)c2)c1`, the IC50 was 242 nM in assay [1] and > 100000 nM in assay [3]. Besides, in assay [1], the pIC50 is 6.62. The Ratio IC50 in the assay filed under Rattus norvegicus [2] was > 413.
Consider `COc1cccc(C(=O)c2cc(C(=O)C(F)(F)F)n(-c3cnn(O)c3)c2)c1`, for which, in assay [1], the IC50 worked out at 64 nM and the negative logarithm of the IC50 (pIC50) amounted to 7.13. Moreover, in the assay listed under Rattus norvegicus [2], the Ratio IC50 was 370. The IC50 in assay [3] was found to be 23700 nM.
In the case of `O=C1NC(=O)[C@@]2(CCOc3ccc(F)cc32)N1` [SORBINIL], in assay [4], half-maximal inhibition (IC50) required 250 nM.
Turning to `CS(=O)(=O)c1ccc(C(=O)c2cc(C(=O)C(F)(F)F)n(-c3cnn(O)c3)c2)cc1`, in assay [1], the IC50 came to 94 nM and the pIC50 is on record as 7.03. For the same compound, the Ratio IC50 in the assay filed under Rattus norvegicus [2] came out at 775. In addition, in [3], the IC50 was found to be 72800 nM.
`COc1ccc(C(=O)c2cc(C(=O)C(F)(F)F)n(-c3cnn(O)c3)c2)cc1`: in [1], the IC50 worked out at 73 nM and the pIC50 came out at 7.14. Moreover, the Ratio IC50 in the assay filed under Rattus norvegicus [2] came out at 468. Moreover, in assay [3], the IC50 was determined as 34200 nM.
As for `O=C(c1cccc(F)c1)c1cc(C(=O)C(F)(F)F)n(-c2cnn(O)c2)c1`, in assay [1], the IC50 was 140 nM and the pIC50 is recorded as 6.85. Moreover, the Ratio IC50 in the assay filed under Rattus norvegicus [2] worked out at 339. Further, in assay [3], the IC50 turned out to be 42300 nM.
For `O=C(c1ccc(F)cc1)c1cc(C(=O)C(F)(F)F)n(-c2cnn(O)c2)c1`, the IC50 in assay [1] was 78 nM; in [3], 67100 nM. Moreover, the pIC50 in assay [1] turned out to be 7.11. In addition, the Ki in assay [5] turned out to be 2460 nM; in assay [7] it was 5840 nM; in assay [8] it was 700 nM; in [9], 820 nM; in assay [10], 8610 nM; in [11], 2190 nM. The Ki in [14] came out at 5270 nM; in assay [15] it was 1860 nM. The Activity turned out to be 838 nmol/g in the assay listed under Rattus norvegicus [6], 710 nmol/g in the assay listed under Rattus norvegicus [12] and 55% in the assay listed under Rattus norvegicus [13]. In addition, in the assay filed under Homo sapiens, the Ratio Ki amounted to 0.75. In addition, the Ratio IC50 in the assay filed under Rattus norvegicus [2] was found to be 858.
As for `CSc1ccc(C(=O)c2cc(C(=O)C(F)(F)F)n(-c3cnn(O)c3)c2)cc1`, the figures for the IC50 in assay [1] and in [3] were 43 nM and 27900 nM, respectively. Moreover, the pIC50 in assay [1] is listed as 7.37. The Ki in assay [5] is 930 nM; in assay [7], 2830 nM; in assay [8], 270 nM; in assay [9], 210 nM; in [10] it was 4550 nM; in assay [11], 390 nM. Also, the values for the Ki in assay [14] and in [15] were 2010 nM and 690 nM, respectively. Further, the Activity in the assay filed under Rattus norvegicus [6] is 889 nmol/g; in the assay filed under Rattus norvegicus [12], 613 nmol/g; in the assay filed under Rattus norvegicus [13], 55%. For the same compound, in the assay filed under Homo sapiens, the Ratio Ki was found to be 0.75. Besides, the Ratio IC50 in the assay listed under Rattus norvegicus [2] turned out to be 650.

The values above are taken from ChEMBL document CHEMBL4011583, “Enhancing activity and selectivity in a series of pyrrol-1-yl-1-hydroxypyrazole-based aldose reductase inhibitors: The case of trifluoroacetylation” (Eur J Med Chem, 2017).
